pEC50, pIC50: −log10 of the molar value.
Experiments:
[1] = test system: KMS11 (human myeloma cell line); assay: Cell Proliferation Assay (CellTiter-Glo, 3 days); assay type: cell-based; conditions: KMS-11, 72 h, KMS11-luc cells
Method in brief: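 EC50 from CellTiter-Glo luminescence after 3-day, 37° C compound treatment of KMS11 cells seeded at 2000 per well in IMDM plus 10% FBS.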

[2] = molecular target: Pim 1 (Homo sapiens, UniProt P11309); assay: Pim 1 AlphaScreen assay (high ATP)
[3] = molecular target: Pim 3 (Homo sapiens, UniProt Q86V86); assay: Pim 3 AlphaScreen assay (high ATP)
[4] = molecular target: Pim 2 (Homo sapiens, UniProt Q9P1W9); assay: Pim 2 AlphaScreen assay (high ATP)
Sequence of Pim 2 (Q9P1W9 whole entry): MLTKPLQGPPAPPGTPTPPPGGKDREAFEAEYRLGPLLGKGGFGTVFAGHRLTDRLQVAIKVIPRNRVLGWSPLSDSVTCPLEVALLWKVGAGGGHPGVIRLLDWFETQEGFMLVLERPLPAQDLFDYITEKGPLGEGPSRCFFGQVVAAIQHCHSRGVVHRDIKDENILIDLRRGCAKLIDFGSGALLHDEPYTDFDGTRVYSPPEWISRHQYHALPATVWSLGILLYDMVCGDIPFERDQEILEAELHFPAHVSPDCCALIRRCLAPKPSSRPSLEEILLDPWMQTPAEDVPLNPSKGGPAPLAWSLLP

Sequence of Pim 1 (P11309 whole entry): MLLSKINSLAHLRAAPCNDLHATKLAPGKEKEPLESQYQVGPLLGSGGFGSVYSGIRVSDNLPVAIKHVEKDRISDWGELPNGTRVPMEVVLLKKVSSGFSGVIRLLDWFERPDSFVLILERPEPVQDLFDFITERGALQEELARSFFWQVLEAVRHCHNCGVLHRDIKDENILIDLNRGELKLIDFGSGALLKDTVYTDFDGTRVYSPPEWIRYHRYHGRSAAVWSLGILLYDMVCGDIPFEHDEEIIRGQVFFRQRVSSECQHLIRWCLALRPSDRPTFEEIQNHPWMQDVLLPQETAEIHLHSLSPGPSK

| Compound | pEC50 [1] | pIC50 [2] | pIC50 [3] | pIC50 [4] |
| --- | --- | --- | --- | --- |
| CCOC(C)(C)c1cc(F)c(-c2nc(C(=O)Nc3cnccc3[C@H]3C[C@@H](N)[C@H](O)[C@@H](C)C3)ccc2F)c(F)c1 [Example 146, N-(4-((1R,3R,4R,5S)-3-amino-4-hydroxy-5-methylcyclohexyl)pyridin-3-yl)-6-(4-(2-ethoxypropan-2-yl)-2,6-difluorophenyl)-5-fluoropicolinamide] | 6.28 | 10.05 | 8.20 | 8.25 |
| C=Cc1ccc(F)c(-c2nc(C(=O)Nc3cnccc3[C@H]3C[C@@H](N)[C@H](O)[C@@H](C)C3)ccc2F)c1F [Example 193, N-(4-((1R,3R,4R,5S)-3-amino-4-hydroxy-5-methylcyclohexyl)pyridin-3-yl)-6-(2,6-difluoro-3-vinylphenyl)-5-fluoropicolinamide] | 5.73 | 9.33 | 7.99 | 7.50 |
| C[C@H]1CN(c2ccncc2NC(=O)c2ccc(F)c(-c3c(F)cc(OCC(F)(F)F)cc3F)n2)C[C@@H](N)[C@@H]1O [Example 198, N-(4-((3R,4R,5S)-3-amino-4-hydroxy-5-methylpiperidin-1-yl)pyridin-3-yl)-6-(2,6-difluoro-4-(2,2,2-trifluoroethoxy)phenyl)-5-fluoropicolinamide] | 7.01 | 11.00 | 9.77 | 9.48 |
| C[C@H]1C[C@@H](c2ccncc2NC(=O)c2ccc(F)c(-c3c(F)cc(OC4CCOC4)cc3F)n2)C[C@@H](N)[C@@H]1O (stereo in doubt) [Example 69, N-(4-((1R,3R,4R,5S)-3-amino-4-hydroxy-5-methylcyclohexyl)pyridin-3-yl)-6-(2,6-difluoro-4-((R)-tetrahydrofuran-3-yloxy)phenyl)-5-fluoropicolinamide] | 7.22 | 10.52 | 9.05 | 8.62 |
| C[C@H]1CN(c2ccncc2NC(=O)c2nc(-c3c(F)cc(C(C)(C)O)cc3F)c(F)cc2N)C[C@@H](N)[C@@H]1O [Example 102, 3-amino-N-(4-((3R,4R,5S)-3-amino-4-hydroxy-5-methylpiperidin-1-yl)pyridin-3-yl)-6-(2,6-difluoro-4-(2-hydroxypropan-2-yl)phenyl)-5-fluoropicolinamide] | 7.82 | 11.00 | 9.89 | 9.12 |
| C[C@H]1C[C@@H](c2ccncc2NC(=O)c2ccc(F)c(-c3c(F)cc(C4CCS(=O)(=O)CC4)cc3F)n2)C[C@@H](N)[C@H]1O [Example 205, N-(4-((1R,3R,4S,5S)-3-amino-4-hydroxy-5-methylcyclohexyl)pyridin-3-yl)-6-(4-(1,1-dioxidotetrahydro-2H-thiopyran-4-yl)-2,6-difluorophenyl)-5-fluoropicolinamide] | 5.86 | 10.70 | 8.97 | 8.82 |
| C[C@H]1CN(c2ccncc2NC(=O)c2ccc(F)c(-c3c(F)cc(C4(F)CCOCC4)cc3F)n2)C[C@@H](N)[C@@H]1O [Example 195, N-(4-((3R,4R,5S)-3-amino-4-hydroxy-5-methylpiperidin-1-yl)pyridin-3-yl)-6-(2,6-difluoro-4-(4-fluorotetrahydro-2H-pyran-4-yl)phenyl)-5-fluoropicolinamide] | 7.44 | 11.00 | 9.74 | 9.41 |
| C[C@H]1CN(c2ccncc2NC(=O)c2ccc(F)c(-c3c(F)cc([S@+](C)[O-])cc3F)n2)C[C@@H](N)[C@@H]1O [Example 25, N-(4-((3R,4R,5S)-3-amino-4-hydroxy-5-methylpiperidin-1-yl)pyridin-3-yl)-6-(2,6-difluoro-4-((S)-methylsulfinyl)phenyl)-5-fluoropicolinamide] | 7.96 | 10.52 | 9.43 | 9.03 |
| COC(C)(C)c1cc(F)c(-c2nc(C(=O)Nc3cnccc3[C@@H]3C[C@H](C)C[C@H](N)C3)ccc2F)c(F)c1 [Example 49, N-(4-((1R,3S,5S)-3-amino-5-methylcyclohexyl)pyridin-3-yl)-6-(2,6-difluoro-4-(2-methoxypropan-2-yl)phenyl)-5-fluoropicolinamide] | 7.28 | 10.52 | 8.73 | 8.57 |
| C[C@@H]1C[C@H](N)C[C@H](c2ccncc2NC(=O)c2ccc(F)c(-c3c(F)cc([C@@H](O)CO)cc3F)n2)C1 [Example 232, N-(4-((1R,3S,5S)-3-amino-5-methylcyclohexyl)pyridin-3-yl)-6-(4-((R)-1,2-dihydroxyethyl)-2,6-difluorophenyl)-5-fluoropicolinamide] | 7.33 | 10.30 | 8.68 | 8.52 |
| COCc1cc(F)c(-c2nc(C(=O)Nc3cnccc3[C@@H]3C[C@H](C)C[C@H](N)C3)ccc2F)c(F)c1 [Example 41, N-(4-((1R,3S,5S)-3-amino-5-methylcyclohexyl)pyridin-3-yl)-6-(2,6-difluoro-4-(methoxymethyl)phenyl)-5-fluoropicolinamide] | 7.66 | 10.40 | 8.67 | 8.56 |
| COC1(c2cc(F)c(-c3nc(C(=O)Nc4cnccc4N4C[C@@H](N)[C@H](O)[C@@H](C)C4)ccc3F)c(F)c2)COC1 [Example 88, N-(4-((3R,4R,5S)-3-amino-4-hydroxy-5-methylpiperidin-1-yl)pyridin-3-yl)-6-(2,6-difluoro-4-(3-methoxyoxetan-3-yl)phenyl)-5-fluoropicolinamide] | 7.77 | 10.70 | 9.16 | 8.93 |
| CC(C)Oc1cc(F)c(-c2nc(C(=O)Nc3cnccc3[C@@H]3C[C@H](C)C[C@H](N)C3)c(N)cc2F)c(F)c1 [Example 96, 3-amino-N-(4-((1R,3S,5S)-3-amino-5-methylcyclohexyl)pyridin-3-yl)-6-(2,6-difluoro-4-isopropoxyphenyl)-5-fluoropicolinamide] | 7.12 | 11.00 | 9.62 | 8.94 |
| C[C@@H]1C[C@H](N)C[C@H](c2ccncc2NC(=O)c2ccc(F)c(-c3c(F)cc(OC4CCOCC4)cc3F)n2)C1 [Example 63, N-(4-((1R,3S,5S)-3-amino-5-methylcyclohexyl)pyridin-3-yl)-6-(2,6-difluoro-4-((tetrahydro-2H-pyran-4-yl)oxy)phenyl)-5-fluoropicolinamide] | 7.12 | 11.00 | 9.49 | 8.69 |
| Cc1noc(C)c1-c1cc(F)c(-c2nc(C(=O)Nc3cnccc3[C@H]3C[C@@H](N)[C@H](O)[C@@H](C)C3)ccc2F)c(F)c1 [Example 173, N-(4-((1R,3R,4R,5S)-3-amino-4-hydroxy-5-methylcyclohexyl)pyridin-3-yl)-6-(4-(3,5-dimethylisoxazol-4-yl)-2,6-difluorophenyl)-5-fluoropicolinamide] | 5.61 | 9.59 | 7.53 | 7.23 |
| CCOc1ccc(F)c(-c2nc(C(=O)Nc3cnccc3N3C[C@@H](N)[C@H](O)[C@@H](C)C3)ccc2F)c1F [Example 216, N-(4-((3R,4R,5S)-3-amino-4-hydroxy-5-methylpiperidin-1-yl)pyridin-3-yl)-6-(3-ethoxy-2,6-difluorophenyl)-5-fluoropicolinamide] | 7.55 | 10.70 | 9.41 | 8.69 |
| COCCc1cc(F)c(-c2nc(C(=O)Nc3cnccc3[C@H]3C[C@@H](N)[C@H](O)[C@@H](C)C3)ccc2F)c(F)c1 [Example 108, N-(4-((1R,3R,4R,5S)-3-amino-4-hydroxy-5-methylcyclohexyl)pyridin-3-yl)-6-(2,6-difluoro-4-(2-methoxyethyl)phenyl)-5-fluoropicolinamide] | 6.04 | 10.40 | 8.92 | 8.53 |
| C[C@H]1CN(c2ccncc2NC(=O)c2ccc(F)c(-c3c(F)cc(O[C@H]4CCCOC4)cc3F)n2)C[C@@H](N)[C@@H]1O [Example 106, N-(4-((3R,4R,5S)-3-amino-4-hydroxy-5-methylpiperidin-1-yl)pyridin-3-yl)-6-(2,6-difluoro-4-((S)-tetrahydro-2H-pyran-3-yloxy)phenyl)-5-fluoropicolinamide] | 6.81 | 11.00 | 9.89 | 9.28 |
| CCOCc1cc(F)c(-c2nc(C(=O)Nc3cnccc3[C@H]3C[C@@H](N)[C@H](O)[C@@H](C)C3)ccc2F)c(F)c1 [Example 83, N-(4-((1R,3R,4R,5S)-3-amino-4-hydroxy-5-methylcyclohexyl)pyridin-3-yl)-6-(4-(ethoxymethyl)-2,6-difluorophenyl)-5-fluoropicolinamide] | 6.78 | 10.40 | 8.88 | 8.61 |
| C[C@H]1C[C@@H](c2ccncc2NC(=O)c2ccc(F)c(-c3c(F)cc(OCC4CC4)cc3F)n2)C[C@@H](N)[C@@H]1O [Example 42, N-(4-((1R,3R,4R,5S)-3-amino-4-hydroxy-5-methylcyclohexyl)pyridin-3-yl)-6-(4-(cyclopropylmethoxy)-2,6-difluorophenyl)-5-fluoropicolinamide] | 6.86 | 10.52 | 9.10 | 8.56 |
| CC(C)[C@@H]1C[C@H](N)C[C@H](c2ccncc2NC(=O)c2ccc(F)c(-c3c(F)cc(C4CCOCC4)cc3F)n2)C1 [Example 139, N-(4-((1R,3S,5S)-3-amino-5-isopropylcyclohexyl)pyridin-3-yl)-6-(2,6-difluoro-4-(tetrahydro-2H-pyran-4-yl)phenyl)-5-fluoropicolinamide] | 6.82 | 11.00 | 9.44 | 9.20 |
